The target in assay [1] is T1, catalytic domain of human Bub1 (amino acids 704-1085) (Homo sapiens, UniProt O43683).
T1 construct: catalytic domain of human Bub1 (amino acids 704-1085); His6 (N); made in house; host or cells: Hi5 insect cells
The assay can be described thus: Bub1 kinase assay (TR-FRET). Format: biochemical. As to the method:
To this end, 100-fold concentrated compound solutions (in DMSO) were previously prepared by serial dilution (1:3.4) of 2 mM stocks in a clear low volume 384-well source microtiter plate (Greiner Bio-One, Frickenhausen, Germany), from which 50 nl of compounds were transferred into a black low volume test microtiter plate from the same supplier. […] The resulting mixture (5 μL final volume) was incubated at […] during 60 min., and the reaction was stopped by the addition of 5 μL of an aqueous EDTA-solution (50 mM EDTA, in 100 mM HEPES pH 7.5 and 0.2% (w/v) bovine serum albumin) which also contained the TR-FRET detection reagents (0.2 μM streptavidin-XL665 [Cisbio Bioassays, Codolet, France] and 1 nM anti-phosho-Serine antibody [Merck Millipore, cat. #35-001] and 0.4 nM LANCE EU-W1024 labeled anti-mouse IgG antibody [Perkin-Elmer, product no. AD0077, alternatively a Terbium-cryptate-labeled anti-mouse IgG antibody from Cisbio Bioassays can be used]). The stopped reaction mixture was further incubated 1 h at 22° C. in order to allow the formation of complexes between peptides and detection reagents. Subsequently, the amount of product was evaluated by measurement of the resonance energy transfer from the Eu-chelate-antibody complex recognizing the Phosphoserine residue to the streptavidin-XL665 bound to the biotin moiety of the peptide. […] IC50 values were calculated by fitting the normalized inhibition data to a 4-parameter logistic equation (Minimum, Maximum, IC50, Hill; Y=Max+(Min−Max)/(1+(X/IC50)Hill)).
On the technique in general: In TR-FRET formats the signal depends on donor and acceptor labels being close together.

For assay [2], the system named is HeLa cell line. Briefly: Proliferation assay (HeLa cell line). Format: cell-based. The conditions noted are these: Homo sapiens, 96 h, read-out: Biological Assay 2: Proliferation assay (HeLa cell line) median IC50. As to the method:
Cultivated tumor cells (cells were ordered from ATCC, except HeLa-MaTu and HeLa-MaTu-ADR, which were ordered from EPO-GmbH, Berlin) were plated at a density of 1000 to 5000 cells/well, depending on the growth rate of the respective cell line, in a 96-well multititer plate in 200 μL of their respective growth medium supplemented 10% fetal calf serum. After 24 hours, the cells of one plate (zero-point plate) were stained with crystal violet (see below), while the medium of the other plates was replaced by fresh culture medium (200 μL), to which the test substances were added in various concentrations (0 μM, as well as in the range of 0.001-10 μM; the final concentration of the solvent dimethyl sulfoxide was 0.5%). The cells were incubated for 4 days in the presence of test substances. Cell proliferation was determined by staining the cells with crystal violet: the cells were fixed by adding 20 μl/measuring point of an 11% glutaric aldehyde solution for 15 minutes at room temperature. After three washing cycles of the fixed cells with water, the plates were dried at room temperature. The cells were stained by adding 100 μl/measuring point of a 0.1% crystal violet solution (pH 3.0). After three washing cycles of the stained cells with water, the plates were dried at room temperature. The dye was dissolved by adding 100 μl/measuring point of a 10% acetic acid solution. Absorption was determined by photometry at a wavelength of 595 nm. The change of cell number, in percent, was calculated by normalization of the measured values to the absorption values of the zero-point plate (=0%) and the absorption of the untreated (0 μm) cells (=100%). The IC50 values were determined by means of a 4 parameter fit using the company's own software.

The mark [3] stands for this setting: TR-FRET, 10 μM ATP, 1 μM peptide substrate, read-out: Biological Assay 1: Bub1 kinase assay median IC50.
[4] abbreviates: cervical cancer, 4 days incubation, crystal violet staining.

These results are taken from patent US20170283396A1, “DIAMINOHETEROARYL SUBSTITUTED INDAZOLES” (Bayer Pharma Aktiengesellschaft, priority 2013, published 2017).

pIC50: −log10 of the molar value. Read-outs that look alike come from different tables or passages of the source.

T1 sequence (O43683 704-1085): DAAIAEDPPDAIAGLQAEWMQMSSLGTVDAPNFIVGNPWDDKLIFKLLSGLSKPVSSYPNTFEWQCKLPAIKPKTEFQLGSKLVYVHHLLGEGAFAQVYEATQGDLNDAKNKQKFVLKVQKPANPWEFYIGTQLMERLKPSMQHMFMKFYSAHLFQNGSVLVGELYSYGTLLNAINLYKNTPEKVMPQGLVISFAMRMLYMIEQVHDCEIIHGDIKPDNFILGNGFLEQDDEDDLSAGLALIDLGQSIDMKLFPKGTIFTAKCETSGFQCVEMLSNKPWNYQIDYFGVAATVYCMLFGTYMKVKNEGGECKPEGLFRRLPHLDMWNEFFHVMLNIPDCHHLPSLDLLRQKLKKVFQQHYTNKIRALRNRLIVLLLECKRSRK

With `CCOc1cc(F)c(Cn2nc(-c3nc(N)c(N4CCOCC4)c(Nc4ccncc4)n3)c3ccccc32)c(F)c1` [Example 2-3-3, 2-[1-(4-ethoxy-2,6-difluorobenzyl)-1H-indazol-3-yl]-5-(morpholin-4-yl)-N-(pyridin-4-yl)pyrimidine-4,6-diamine], the pIC50 in assay [1] (setting [3]) was 8.37; in assay [2], 5.44. In the same order, the values of `CCOc1cc(F)c(Cn2nc(-c3nc4c(c(Nc5ccncc5)n3)OCC(=O)N4)c3ccccc32)c(F)c1` [Example 2-3-17, 2-[1-(4-ethoxy-2,6-difluorobenzyl)-1H-indazol-3-yl]-4-(pyridin-4-ylamino)-6H-pyrimido[5,4-b][1,4]oxazin-7(8H)-one] are 8.10 and 5.92. For the compound `CCNC(=O)Nc1nc(-c2nn(Cc3c(F)cc(OCC)cc3F)c3ccccc23)nc(Nc2ccncc2)c1N1CCOCC1` [Example 2-3-4, 1-{2-[1-(4-ethoxy-2,6-difluorobenzyl)-1H-indazol-3-yl]-5-(morpholin-4-yl)-6-(pyridin-4-ylamino)pyrimidin-4-yl}-3-ethylurea], the pIC50 in assay [1] is 6.89; in assay [2] (setting [4]) it was no more than 5.00. `CCOc1cc(F)c(Cn2nc(-c3nc(N)c(OCCOC)c(Nc4ccncn4)n3)c3ccccc32)c(F)c1` [Example 2-3-11, 2-[1-(4-ethoxy-2,6-difluorobenzyl)-1H-indazol-3-yl]-5-(2-methoxyethoxy)-N-(pyrimidin-4-yl)pyrimidine-4,6-diamine]: the pIC50 in assay [1] (setting [3]) was 8.28; in assay [2] it was 5.43.

Regarding `CCOc1cc(F)c(Cn2nc(-c3nc(N)c(OCCO)c(Nc4ccncc4)n3)c3ccccc32)c(F)c1` [Example 2-5-1, 2-({4-amino-2-[1-(4-ethoxy-2,6-difluorobenzyl)-1H-indazol-3-yl]-6-(pyridin-4-ylamino)pyrimidin-5-yl}oxy)ethanol], the pIC50 in assay [1] (setting [3]) is 8.39; in assay [2] it was 5.46.

With `CCOc1cc(F)c(Cn2nc(-c3nc(N)nc(Nc4ccncc4)n3)c3ccccc32)c(F)c1` [Example 2-3-9, 6-[1-(4-ethoxy-2,6-difluorobenzyl)-1H-indazol-3-yl]-N-(pyridin-4-yl)-1,3,5-triazine-2,4-diamine], the pIC50 in assay [1] (setting [3]) is 8.24; in assay [2] it was 5.54. Turning to `CCOc1cc(F)c(Cn2nc(-c3nc(N)c(N4CCOCC4)c(Nc4ccncn4)n3)c3ccccc32)c(F)c1` [Example 2-3-7, 2-[1-(4-ethoxy-2,6-difluorobenzyl)-1H-indazol-3-yl]-5-(morpholin-4-yl)-N-(pyrimidin-4-yl)pyrimidine-4,6-diamine], the pIC50 was 8.18 in assay [1] (setting [3]) and 5.05 in assay [2]. With `CCOc1cc(F)c(Cn2nc(-c3nc(Nc4ccncc4)c(NS(=O)(=O)C(F)(F)F)c(Nc4ccncc4)n3)c3ccccc32)c(F)c1` [Example 2-4-11, N-{2-[1-(4-ethoxy-2,6-difluorobenzyl)-1H-indazol-3-yl]-4,6-bis(pyridin-4-ylamino)pyrimidin-5-yl}-1,1,1-trifluoromethanesulfonamide], in assay [1] (setting [3]), the pIC50 is 5.68. The compound `CCOc1cc(F)c(Cn2nc(-c3nc(Nc4ccncn4)c(N4CCOCC4)c(Nc4ccncn4)n3)c3ccccc32)c(F)c1` [Example 2-4-4, 2-[1-(4-ethoxy-2,6-difluorobenzyl)-1H-indazol-3-yl]-5-(morpholin-4-yl)-N,N′-di(pyrimidin-4-yl)pyrimidine-4,6-diamine] had a pIC50 in assay [1] of 7.01.

As for `CCOc1cc(F)c(Cn2nc(-c3nc(Nc4ccncc4)cc(Nc4ccncc4)n3)c3ccccc32)c(F)c1` [Example 2-4-1, 2-[1-(4-ethoxy-2,6-difluorobenzyl)-1H-indazol-3-yl]-N,N′-di(pyridine-4-yl)pyrimidine-4,6-diamine], the pIC50 in assay [1] (setting [3]) is 7.09.

For the compound `CCOc1cc(F)c(Cn2nc(-c3nc(Nc4ccncc4)c(NC(=O)COC)c(Nc4ccncc4)n3)c3ccccc32)c(F)c1` [Example 2-4-8, N-{2-[1-(4-ethoxy-2,6-difluorobenzyl)-1H-indazol-3-yl]-4,6-bis(pyridin-4-ylamino)pyrimidin-5-yl}-2-methoxyacetamide], the pIC50 was 6.66 in assay [1] (setting [3]) and 5.60 in assay [2]. With `CCOc1cc(F)c(Cn2nc(-c3nc(N)c(NS(=O)(=O)CC)c(Nc4ccncc4)n3)c3ccccc32)c(F)c1` [Example 2-3-15, N-{4-amino-2-[1-(4-ethoxy-2,6-difluorobenzyl)-1H-indazol-3-yl]-6-(pyridin-4-ylamino)pyrimidin-5-yl}ethanesulfonamide], the results for the pIC50 in assay [1] (setting [3]) and in assay [2] were 8.24 and no more than 5.00, respectively.

Take `CCOc1cc(F)c(Cn2nc(-c3nc(N)cc(Nc4ccncc4)n3)c3ccccc32)c(F)c1` [Example 2-3-1, 2-[1-(4-ethoxy-2,6-difluorobenzyl)-1H-indazol-3-yl]-N-(pyridin-4-yl)pyrimidine-4,6-diamine]: the pIC50 is 8.19 in assay [1] (setting [3]) and 5.89 in assay [2]. Regarding `CCOc1cc(F)c(Cn2nc(-c3nc(Nc4ccncc4)c(NS(=O)(=O)CC)c(Nc4ccncc4)n3)c3ccccc32)c(F)c1` [Example 2-4-10, N-{2-[1-(4-ethoxy-2,6-difluorobenzyl)-1H-indazol-3-yl]-4,6-bis(pyridin-4-ylamino)pyrimidin-5-yl}ethanesulfonamide], the pIC50 was 6.15 in assay [1] (setting [3]) and no more than 5.00 in assay [2].

On to `CCOc1cc(F)c(Cn2nc(-c3nc4c(c(Nc5ccncn5)n3)OCC(=O)N4)c3ccccc32)c(F)c1` [Example 2-3-18, 2-[1-(4-ethoxy-2,6-difluorobenzyl)-1H-indazol-3-yl]-4-(pyrimidin-4-ylamino)-6H-pyrimido[5,4-b][1,4]oxazin-7(8H)-one], for which the pIC50 in assay [1] (setting [3]) is 7.72; in assay [2] it was no more than 5.00. For `CCOc1cc(F)c(Cn2nc(-c3nc(N)c(OC)c(Nc4ccncn4)n3)c3ccccc32)c(F)c1` [Example 2-3-6, 2-[1-(4-ethoxy-2,6-difluorobenzyl)-1H-indazol-3-yl]-5-methoxy-N-(pyrimidin-4-yl)pyrimidine-4,6-diamine], the pIC50 in assay [1] (setting [3]) is 8.19. Turning to `CCOc1cc(F)c(Cn2nc(-c3nc(Nc4ccncc4)c(OCCOC)c(Nc4ccncc4)n3)c3ccccc32)c(F)c1` [Example 2-4-6, 2-[1-(4-ethoxy-2,6-difluorobenzyl)-1H-indazol-3-yl]-5-(2-methoxyethoxy)-N,N′-di(pyridin-4-yl)pyrimidine-4,6-diamine], the pIC50 in assay [2] (setting [4]) is no more than 5.00. As to `CCOc1cc(F)c(Cn2nc(-c3nc(Nc4ccncn4)c(OCCOC)c(Nc4ccncn4)n3)c3ccccc32)c(F)c1` [Example 2-4-7, 2-[1-(4-ethoxy-2,6-difluorobenzyl)-1H-indazol-3-yl]-5-(2-methoxyethoxy)-N,N′-di(pyrimidin-4-yl)pyrimidine-4,6-diamine], in assay [2] (setting [4]), the pIC50 was no more than 5.00.

On to `CC(=O)Nc1cc(N(c2ccncc2)c2ccncc2)nc(-c2nn(Cc3ccccc3F)c3ccccc23)n1` [Example 2-2-3, N-{6-(dipyridin-4-ylamino)-2-[1-(2-fluorobenzyl)-1H-indazol-3-yl]-pyrimidin-4-yl}acetamide], for which the pIC50 in assay [1] (setting [3]) is 4.74. `COCC(=O)Nc1cc(N(c2ccncc2)c2ccncc2)nc(-c2nn(Cc3ccccc3F)c3ccccc23)n1` [Example 2-2-4, N-{6-(dipyridin-4-ylamino)-2-[1-(2-fluorobenzyl)-1H-indazol-3-yl]pyrimidin-4-yl}-2-methoxyacetamide] showed a pIC50 in assay [1] of less than 4.70.
